Experimental data reported in US20040175737A1, “Assay for RNase H activity” (Wyeth, priority 2002, published 2004).

Target: T1, HIV RT RNase H (Human immunodeficiency virus type 1 group M subtype B, UniProt P04585)
T1 construct: HIV p66/p51 heterodimer; purchased Enzyco, Inc. (Replidyne Inc., Louisville Colo.)
Assay: PAGE-based endpoint assay for HIV RT RNase H activity, titrated with single stranded RNA or DNA contaminants
Type: biochemical
Settings: 5, 10 and 50 pmol RNA; molar ratios to RNA-DNA hybrid substrate 1:1, 2:1 and 10:1; 1 U HIV RT enzyme; 37° C.
From the text: RNase H. Samples of HIV p66/p51 heterodimer were obtained from Enzyco, Inc. (Replidyne Inc., Louisville Colo.) Methods for the recombinant expression, purification and characterization of this enzyme have been previously described (Thimmig & McHenry, J. Biol. Chem. 1993, 268:16528-16536). Purity of the enzyme samples was verified on polyacrylamide gels. […] Samples of E. coli RNase H1 were purchased from EPICENTR (Madison, Wis.).
Radiolabled RNA was generated by incorporating ^33P-ATP in the T7 RNA polymerase reaction, and annealed to an unlabeled ssDNA 49mer having the nucleotide sequence set forth in SEQ ID NO:2 (shown below). In an alternative version of these experiments, the complementary DNA oligonucleotide (SEQ ID NO:2) was radiolabeled with ^33P at the 5′ end by T4 PNK, and annealed to the unlabeled 29mer ssRNA (SEQ ID NO: 1).
Time dependent RNA degradation by RNase H. Aliquots containing 0.5 pmol of the radio-labeled DNA-RNA substrate ([…]) were incubated in Tris buffer (pH 8) with 10 mM MgCl2, KCl (between 0 and 30 mM), 3% glycerol, 0.2% NP-40, 50 μg/ml BSA and 1 mM DTT. […] The reaction products were analyzed by PAGE. […]

Substance | inhibition of HIV RT RNase H activity (measured amount of end-labeled ssDNA after reaction)
homopolymeric A: homopolymeric polyA, 5′-(A)n-3′, n ≈ 500 to 1000, SEQ ID NO:3 | did not inhibit
homopolymeric U: homopolymeric polyU, 5′-(U)n-3′, n ≈ 500 to 1000, SEQ ID NO:4 | did not inhibit
